The results in this text go back to PubChem BioAssay AID328 (DTP/NCI, 2004).

Where “and” joins values, the source holds several entries; their conditions need not be identical. Identical values can stand only once. Inconclusive results and toxic doses are left out.

In the assay the test system is BDF1 mice, P388 leukemia ip, median survival T/C. The assay is described as follows: NCI In Vivo Anticancer Drug Screen. Data for tumor model P388 Leukemia (intraperitoneal) in B6D2F1 (BDF1) mice. To be noted: endpoint: median survival time, higher = longer survival. The method in brief:
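Vehicle-dosed animals serve as the reference; survival of compound-dosed, tumour-implanted mice is divided by it.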

Setting [1] is: dose: 12.5 mg/kg/injection, schedule: Q01DX009 (ip), vehicle: saline.
Where [2] appears, read: dose: 25.0 mg/kg/injection, schedule: Q01DX009 (ip), vehicle: saline.
The mark [3] stands for this setting: dose: 6.25 mg/kg/injection, schedule: Q01DX009 (ip), vehicle: saline.
[4] abbreviates: dose: 100.0 mg/kg/injection, schedule: Q01DX009 (ip), vehicle: saline.
The mark [5] stands for this setting: dose: 100.0 mg/kg/injection, schedule: Q04DX003 (ip), vehicle: saline.
The mark [6] stands for this setting: dose: 50.0 mg/kg/injection, schedule: Q01DX009 (ip), vehicle: saline.
[7] abbreviates: dose: 50.0 mg/kg/injection, schedule: Q01DX009 (ip), vehicle: saline with Tween-80.

In the case of `N#CC12CC3CC(CC(C3)C1)C2`, the T/C is, setting by setting: (dose: 5.0 mg/kg/injection, schedule: Q01DX009 (ip), vehicle: saline with Tween-80) 100 % of control; (dose: 20.0 mg/kg/injection, schedule: Q01DX009 (ip), vehicle: saline with Tween-80) 88 % of control.

As for `[N-]=[N+]=NCc1cnccn1`, the T/C reads like this: under setting [1], 100 % of control; under setting [2], 113 % of control.

As for `CCN(CCO)c1ccc(N)cc1C`, the T/C is 100 % of control (dose: 1.56 mg/kg/injection, schedule: Q01DX009 (ip), vehicle: saline); 100 % of control (dose: 3.13 mg/kg/injection, schedule: Q01DX009 (ip), vehicle: saline); 90 % of control under setting [3].

With `O=S(=O)(CBr)OCCCl`, the T/C is 120 % of control (dose: 50.0 mg/kg/injection, schedule: Q01DX005 (ip), vehicle: saline with Tween-80); 121 % of control (dose: 100.0 mg/kg/injection, schedule: Q01DX005 (ip), vehicle: saline with Tween-80); 165 % of control (dose: 200.0 mg/kg/injection, schedule: Q01DX005 (ip), vehicle: saline with Tween-80).

Consider `O=S(=O)(O)CCN(CCO)CCO`, for which the T/C runs as follows: under setting [4], 87 % of control; under setting [5], 109 % of control; (dose: 200.0 mg/kg/injection, schedule: Q04DX003 (ip), vehicle: saline) 104 % of control; (dose: 400.0 mg/kg/injection, schedule: Q01DX009 (ip), vehicle: saline) 87 % of control; (dose: 400.0 mg/kg/injection, schedule: Q04DX003 (ip), vehicle: saline) 95 % of control.

Take `NC(N)=N/N=C/C(Cl)Cl`: the T/C by setting is: under setting [2], 95 % of control and 100 % of control; under setting [6], 104 % of control; under setting [4], 100 % of control and 109 % of control.

In the case of `C=C(C)C12OC3(c4ccccc4)OC1C1C4OC4(CO)C(O)C4(O)C(=O)C(C)=CC4C1(O3)C(C)C2O` (stereo not drawn), the T/C runs as follows: (dose: 25.0 micrograms/kg/injection, schedule: Q01DX009 (ip), vehicle: saline + alcohol) 95 % of control and 102 % of control; (dose: 50.0 micrograms/kg/injection, schedule: Q01DX009 (ip), vehicle: saline + alcohol) 93 % of control; (dose: 100.0 micrograms/kg/injection, schedule: Q01DX009 (ip), vehicle: saline + alcohol) 107 % of control; (dose: 200.0 micrograms/kg/injection, schedule: Q01DX009 (ip), vehicle: saline + alcohol) 103 % of control and 110 % of control; (dose: 800.0 micrograms/kg/injection, schedule: Q01DX009 (ip), vehicle: saline + alcohol) 116 % of control; (dose: 1600.0 micrograms/kg/injection, schedule: Q01DX009 (ip), vehicle: saline + alcohol) 106 % of control.

With `COc1cc2c(cc1OC)CC[N+](C)=C2`, the T/C was 102 % of control (dose: 3.12 mg/kg/injection, schedule: Q01DX009 (ip), vehicle: saline); 104 % of control (dose: 3.12 mg/kg/injection, schedule: Q04DX003 (ip), vehicle: saline); 105 % of control under setting [3]; 97 % of control and 122 % of control (dose: 6.25 mg/kg/injection, schedule: Q04DX003 (ip), vehicle: saline); 102 % of control under setting [1]; 95 % of control and 97 % of control (dose: 12.5 mg/kg/injection, schedule: Q04DX003 (ip), vehicle: saline). The T/C under setting [2] is 102 % of control; the T/C (dose: 25.0 mg/kg/injection, schedule: Q04DX003 (ip), vehicle: saline) is 91 % of control; the T/C under setting [6] was 91 % of control; the T/C (dose: 50.0 mg/kg/injection, schedule: Q04DX003 (ip), vehicle: saline) was 121 % of control; the T/C under setting [5] was 100 % of control.

On to `CN/N=C/c1cccnc1`, for which the T/C runs as follows: under setting [1], 97 % of control; under setting [2], 95 % of control; under setting [7], 105 % of control; under setting [6], 95 % of control.

With `COCCCNS(=O)(=O)c1ncnc2nc[nH]c12`, the T/C is 100 % of control (dose: 132.0 mg/kg/injection, schedule: Q04DX003 (ip), vehicle: saline with Tween-80); 100 % of control (dose: 200.0 mg/kg/injection, schedule: Q04DX003 (ip), vehicle: saline with Tween-80); 100 % of control (dose: 300.0 mg/kg/injection, schedule: Q04DX003 (ip), vehicle: saline with Tween-80).

For the molecule `CN1CC(=O)N=C1N`, the T/C runs as follows: (dose: 100.0 mg/kg/injection, schedule: Q01DX009 (ip), vehicle: Klucel (hydroxypropylcellulose) (HPC)) 90 % of control; (dose: 200.0 mg/kg/injection, schedule: Q01DX009 (ip), vehicle: Klucel (hydroxypropylcellulose) (HPC)) 95 % of control; (dose: 400.0 mg/kg/injection, schedule: Q01DX009 (ip), vehicle: Klucel (hydroxypropylcellulose) (HPC)) 100 % of control.

Take `CN(Cc1cnc2nc(N)nc(N)c2n1)c1ccc(C(=O)NC(CCC(=O)O)C(=O)O)cc1Br` (stereo not drawn): the T/C by setting is: (dose: 0.35 mg/kg/injection, schedule: Q01DX009 (ip), vehicle: saline) 231 % of control; (dose: 0.7 mg/kg/injection, schedule: Q01DX009 (ip), vehicle: saline) 259 % of control; (dose: 13.2 mg/kg/injection, schedule: Q04DX003 (ip), vehicle: saline with Tween-80) 250 % of control.

For `O=c1c(O)c(-c2ccc(O)c(O)c2)oc2cc(O)cc(O)c12`, the T/C is 118 % of control (dose: 15.0 mg/kg/injection, schedule: Q01DX009 (ip), vehicle: saline); 108 % of control under setting [2]; 109 % of control (dose: 30.0 mg/kg/injection, schedule: Q01DX009 (ip), vehicle: saline); 97 % of control and 112 % of control under setting [6]; 102 % of control and 117 % of control under setting [4]; 118 % of control (dose: 125.0 mg/kg/injection, schedule: Q01DX009 (ip), vehicle: saline). Besides, the T/C runs as follows: (dose: 200.0 mg/kg/injection, schedule: Q01DX009 (ip), vehicle: saline) 110 % of control; (dose: 300.0 mg/kg/injection, schedule: Q01DX009 (ip), vehicle: saline) 97 % of control.

For the molecule `c1ccc(-c2cc3c(N4CCOCC4)nnc(N4CCOCC4)c3cn2)cc1`, the T/C is, setting by setting: under setting [7], 89 % of control; (dose: 100.0 mg/kg/injection, schedule: Q01DX009 (ip), vehicle: saline with Tween-80) 86 % of control.

Take `CSCS(=O)C[C@H](CO)NC(=O)/C=C/c1c(C)[nH]c(=O)[nH]c1=O` (stereo partly drawn): the T/C is, setting by setting: (dose: 0.15 mg/kg/injection, schedule: Q01DX010 (ip), vehicle: saline) 109 % of control; (dose: 0.3 mg/kg/injection, schedule: Q01DX010 (ip), vehicle: saline) 122 % of control; (dose: 0.6 mg/kg/injection, schedule: Q01DX010 (ip), vehicle: saline) 172 % of control; (dose: 0.72 mg/kg/injection, schedule: Q04DX003 (ip), vehicle: saline) 105 % of control; (dose: 0.78 mg/kg/injection, schedule: Q04DX002 (ip), vehicle: Klucel (hydroxypropylcellulose) (HPC)) 100 % of control and 109 % of control; (dose: 0.86 mg/kg/injection, schedule: Q04DX003 (ip), vehicle: saline) 108 % of control. For the same molecule, the T/C was 121 % of control (dose: 1.0 mg/kg/injection, schedule: Q04DX003 (ip), vehicle: saline); 100 % of control (dose: 1.2 mg/kg/injection, schedule: Q01DX010 (ip), vehicle: saline); 123 % of control (dose: 1.2 mg/kg/injection, schedule: Q04DX003 (ip), vehicle: saline); 109 % of control (dose: 1.56 mg/kg/injection, schedule: Q04DX002 (ip), vehicle: Klucel (hydroxypropylcellulose) (HPC)); 156 % of control (dose: 2.0 mg/kg/injection, schedule: Q04DX003 (ip), vehicle: saline); 97 % of control (dose: 2.4 mg/kg/injection, schedule: Q04DX003 (ip), vehicle: saline). Also, the T/C (dose: 3.33 mg/kg/injection, schedule: Q04DX003 (ip), vehicle: saline) is 106 % of control; the T/C (dose: 6.25 mg/kg/injection, schedule: Q04DX002 (ip), vehicle: Klucel (hydroxypropylcellulose) (HPC)) was 118 % of control; the T/C (dose: 173.0 micrograms/kg/injection, schedule: Q01DX009 (ip), vehicle: saline) is 106 % of control; the T/C (dose: 288.0 micrograms/kg/injection, schedule: Q01DX009 (ip), vehicle: saline) was 110 % of control; the T/C (dose: 480.0 micrograms/kg/injection, schedule: Q01DX009 (ip), vehicle: saline) is 99 % of control.

On to `O=C(O)C1(O)CC(O)C(O)C(O)C1` (stereo not drawn), for which the T/C is 96 % of control (dose: 100.0 mg/kg/injection, schedule: Q04DX002 (ip), vehicle: saline with Tween-80); 94 % of control (dose: 200.0 mg/kg/injection, schedule: Q04DX002 (ip), vehicle: saline with Tween-80); 86 % of control (dose: 400.0 mg/kg/injection, schedule: Q04DX002 (ip), vehicle: saline with Tween-80).
